These compounds were tested against T1, Renin (Homo sapiens, UniProt P00797) (assay: Evaluation of inhibitory activity against human renin).
T1 sequence (P00797 whole entry): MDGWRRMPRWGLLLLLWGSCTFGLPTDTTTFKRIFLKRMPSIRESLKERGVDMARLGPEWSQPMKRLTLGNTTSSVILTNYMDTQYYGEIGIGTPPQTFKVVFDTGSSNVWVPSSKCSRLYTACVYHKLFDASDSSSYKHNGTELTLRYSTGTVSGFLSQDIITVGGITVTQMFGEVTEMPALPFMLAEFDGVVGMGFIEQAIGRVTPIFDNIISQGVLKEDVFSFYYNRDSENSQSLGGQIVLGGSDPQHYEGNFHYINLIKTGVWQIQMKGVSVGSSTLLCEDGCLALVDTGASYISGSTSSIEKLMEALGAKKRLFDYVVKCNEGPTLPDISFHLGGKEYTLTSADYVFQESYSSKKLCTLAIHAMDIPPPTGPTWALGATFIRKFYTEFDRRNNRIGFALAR

| SMILES | IC50 [nM] |
| --- | --- |
| COP(=O)(OC)[C@H](O)[C@H](CC1CCCCC1)NC(=O)[C@H](CC(C)C)NC(=O)[C@H](Cc1ccccc1)NC(=O)CCCCCN | 31 |
| CCOC(=O)[C@H](O)[C@H](CC1CCCCC1)NC(=O)[C@H](CC(C)C)NC(=O)[C@H](Cc1ccccc1)NC(=O)OC(C)(C)C | 5 |
| COP(=O)(OC)[C@H](O)[C@H](CC1CCCCC1)NC(=O)[C@H](CC(C)C)NC(=O)[C@H](Cc1ccccc1)NC(=O)N1CCOCC1 | 8.5 |
| COP(=O)(OC)[C@H](O)[C@H](CC1CCCCC1)NC(=O)[C@H](Cc1cnc[nH]1)NC(=O)[C@H](Cc1ccccc1)NC(=O)N1CCOCC1 | 41 |
| COP(=O)(O)[C@H](O)[C@H](CC1CCCCC1)NC(=O)[C@H](CC(C)C)NC(=O)[C@H](Cc1ccccc1)NC(=O)C1CCCC1 | 27000 |
| COP(=O)(OC)[C@H](O)[C@H](CC1CCCCC1)NC(=O)[C@H](CC(C)C)NC(=O)[C@H](Cc1ccccc1)NC(=O)C1CCCC1 | 16 |
| COP(=O)(OC)[C@H](O)[C@H](CC1CCCCC1)NC(=O)[C@H](Cc1cnc[nH]1)NC(=O)[C@H](Cc1ccccc1)NC(=O)C1CCCC1 | 220 |

These compounds were tested against T1, Renin (assay: Evaluation of inhibitory activity against human renin.).

| SMILES | IC50 [nM] |
| --- | --- |
| CCOP(=O)(OCC)[C@@H](O)[C@H](CC1CCCCC1)NC(=O)[C@H](CC(C)C)NC(=O)[C@H](Cc1ccccc1)NC(=O)OC(C)(C)C | 41000 |
| COP(=O)(OC)[C@H](O)[C@H](CC1CCCCC1)NC(=O)[C@H](CC(C)C)NC(=O)[C@H](Cc1ccccc1)NC(=O)OC(C)(C)C | 10 |
| CCOP(=O)(OCC)[C@H](O)[C@H](CC1CCCCC1)NC(=O)[C@H](CC(C)C)NC(=O)[C@H](Cc1ccccc1)NC(=O)C1CCCC1 | 38 |
| CCOP(=O)(OCC)[C@H](O)[C@H](CC1CCCCC1)NC(=O)[C@H](CC(C)C)NC(=O)[C@H](Cc1ccccc1)NC(=O)OC(C)(C)C | 29 |

Each compound was assayed against T1, Renin (assay: Evaluation of inhibitory activity against human renin. value in parentheses indicate no. of determinations).

| SMILES | IC50 [nM] |
| --- | --- |
| CCP(=O)(CC)[C@H](O)[C@H](CC1CCCCC1)NC(=O)[C@H](CC(C)C)NC(=O)[C@H](Cc1ccccc1)NC(=O)C1CCCC1 | 400 |
| CCP(=O)(CC)[C@@H](O)[C@H](CC1CCCCC1)NC(=O)[C@H](CC(C)C)NC(=O)[C@H](Cc1ccccc1)NC(=O)C1CCCC1 | 5200 |
| CCP(=O)(OC)C(O)[C@H](CC1CCCCC1)NC(=O)[C@H](CC(C)C)NC(=O)[C@H](Cc1ccccc1)NC(=O)C1CCCC1 (stereo in doubt; 28) | 210 |
| CCP(=O)(OC)C(O)[C@H](CC1CCCCC1)NC(=O)[C@H](CC(C)C)NC(=O)[C@H](Cc1ccccc1)NC(=O)C1CCCC1 (stereo in doubt; 29) | 44 |
| CCP(=O)(OC)C(O)[C@H](CC1CCCCC1)NC(=O)[C@H](CC(C)C)NC(=O)[C@H](Cc1ccccc1)NC(=O)C1CCCC1 (stereo in doubt; 30) | 2400 |

From ChEMBL document CHEMBL1128189, “alpha-Hydroxy phosphinyl-based inhibitors of human renin” (J Med Chem, 1995)
